Results reported in article PMC7641245 (Chemical communications (Cambridge, England), 2020).

Target: T1, hIAPP (human islet amyloid polypeptide) (Homo sapiens, UniProt P10997)
T1 sequence (P10997 34-70): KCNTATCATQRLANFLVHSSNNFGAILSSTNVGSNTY
Assay: isothermal titration calorimetry
Type: binding
Conditions: hIAPP fibers; no interaction seen by ITC with hIAPP monomers

## CurDAc
  Kd: ~7 µM
